{
  "source": "patent US8273797B2",
  "about": "“Treating renal cancer using 4-[bis[2-[(methylsulfonyl)oxy]ethyl]amino]-2-methyl-benzaldehyde” (The United States of America, as represented by the …, priority 2005, dated 2012)",
  "key": {"[1]": {"system": "RCC tumor cell lines", "conditions": "cited from earlier work"}, "[2]": {"system": "xenograft", "conditions": "mouse, in vivo; cited from earlier work"}, "[3]": {"system": "RXF-393 human renal tumor cells", "experiment": "Orthotopic intrarenal RXF-393 tumor model", "type": "in vivo, mice", "conditions": "for Median Tumor Weight (mg, Day 23) / T/C (%) / Median Tumor Weight (mg, Day 27): Rt. IV"}, "[4]": {"system": "Dunning rat leukemia", "conditions": "Elderfield, private communication; no specific data disclosed; cited from earlier work"}, "[5]": {"system": "A498 human renal tumor xenografts", "experiment": "Subcutaneous A498 xenograft tumor model", "type": "in vivo, athymic nude mice", "conditions": "NSC-281612 54 mg/kg Q4Dx3 from day 4 post implantation, compared with NSC-281817 120 mg/kg", "protocol": "Tumor cells (e.g., A498 and RXF-393) were derived from established tumors maintained by serial passage in mice for a maximum of 10 passages. […] Male mice were used in all experiments. All animals were provided by NCI contractors at the NCI-Frederick production facility or Taconic Laboratories (Germantown, N.Y.).\n(§1) Intraperitoneal drug treatment schedules were established from the tumor doubling times because pharmacological data were not available. The dose levels were determined by establishing a single injection maximum tolerated dose (MTD) from which the experimental doses were calculated as: dose (mg/kg)=[(1.5×MTD)/no. of doses to be given]. Each experiment consisted of 20 control mice (based on statistical need) that received dosing vehicle (saline+0.05% Tween 80) on the same schedule as used for the test articles. Each treated group contained six mice. Tumor volumes were measured two to three times weekly and the tumor weights were calculated using the formula for a prolate ellipsoid: tumor weight (mg)={[length (in mm)]×[width (in mm)]^2}/2. The control tumors reached 500 mm^3 in 27 days for A498 and 12 days for RXF-393.\nHuman tumor xenografts were generated by injection of 1×10^7 A498 tumor cells subcutaneously into athymic nude male mice. […] The tumor weight was calculated every fourth day beginning at day 7. […]"}, "[6]": {"experiment": "Toxicity (mortality, body weight loss, tolerability) in mice bearing intrarenal RXF-393 tumors", "type": "in vivo", "protocol": "as §1\nRXF-393 cells were injected directly into the caudal pole of the kidney on Day 0. The inoculated kidney was monitored for tumor growth in treated versus control mice by collecting and weighing the kidneys on day 25 post-implantation. In a preliminary experiment, NSC-281612 was administered intraperitoneally (IP) every fourth day for a total of 5 treatments (Q4D×5) starting 4 days after tumor implantation. […] In this study, NSC-281612 was assessed at 25 mg/kg (Group 2), 16.8 mg/kg (Group 3) and 11.3 mg/kg (Group 4). Due to toxicity, the 25 mg/kg dose was lowered to 8.3 mg/kg and only 4 doses were administered to Groups 2 and 3 (see Table 1).\nTo assess the impact of drug administration route, an experiment was conducted in which NSC-281612 was administered at doses of 8 mg/kg, 4 mg/kg and 2 mg/kg given intravenously (IV) on a Q4D×5 schedule with the first treatment given on day 4 post-tumor implantation. […] See, Table 2 for results and FIG. 6 for individual renal tumor weights for mice administered control only (vehicle), 8 mg/kg, 4 mg/kg, or 2 mg/kg intravenously on a Q4D×5 schedule."}, "[7]": {"conditions": "2 mg/kg/dose IV Q4Dx5 from day 4"}, "[8]": {"conditions": "4 mg/kg/dose IV Q4Dx5 from day 4"}, "[9]": {"conditions": "8 mg/kg/dose IV Q4Dx5 from day 4"}, "[10]": {"conditions": "Group 2: 25 mg/kg Q4Dx3 and a final dose of 8.3 mg/kg IP"}},
  "note": "Values joined by “and” are separate entries in the source; they are usually repeats but may differ in a detail not shown here. Equal entries are not always repeated. “Also recorded” adds a separate entry of the source.",
  "data": [
    {"molecule": "Cc1cc(N(CCOS(C)(=O)=O)CCOS(C)(=O)=O)ccc1C=Nc1ccc(-c2nc(Cc3ccccc3)sc2C)cc1", "note": "[NSC-281817]", "values": [
      {"measurement": "in vitro activity against RCC tumor cell lines", "setting": "[1]", "result": "having in vitro activity"},
      {"measurement": "antitumor activity in xenograft-bearing mice", "setting": "[2]", "result": "only modest"}
    ]},
    {"molecule": "Cc1cc(N(CCOS(C)(=O)=O)CCOS(C)(=O)=O)ccc1C=Nc1ccc(-c2csc(-c3ccccc3)n2)c(Cl)c1", "note": "[compound 281613]", "values": [
      {"measurement": "in vitro activity against RCC tumor cell lines", "setting": "[1]", "result": "having in vitro activity"},
      {"measurement": "antitumor activity in xenograft-bearing mice", "setting": "[2]", "result": "only modest"}
    ]},
    {"molecule": "CS(=O)(=O)OCCN(CCOS(C)(=O)=O)c1ccc(C=Nc2ccc(-c3csc(COc4ccccc4)n3)cc2)cc1", "note": "[compound 280074]", "values": [
      {"measurement": "in vitro activity against RCC tumor cell lines", "setting": "[1]", "result": "having in vitro activity"},
      {"measurement": "antitumor activity in xenograft-bearing mice", "setting": "[2]", "result": "only modest"}
    ]},
    {"molecule": "Cc1cc(N(CCOS(C)(=O)=O)CCOS(C)(=O)=O)ccc1C=O", "note": "[NSC-281612, 4-[bis[2-[(methylsulfonyl)oxy]ethyl]amino]-2-methyl-benzaldehyde]", "values": [
      {"measurement": "reduction in tumor mass", "setting": "[3]; 2 mg/kg/dose IV Q4Dx5", "result": "did not achieve a level of statistical significance"},
      {"measurement": "Day 22 Tumor Weight average", "setting": "[3]; [7]", "result": 270, "unit": "mg"},
      {"measurement": "Day 22 Tumor Weight median", "setting": "[3]; [7]", "result": 284, "unit": "mg"},
      {"measurement": "Median Tumor Weight (mg, Day 23)", "setting": "[3]; 3.4 mg/kg/dose, QDx5, D5", "result": 11.5, "unit": "mg"},
      {"measurement": "T/C (%)", "setting": "[3]; 3.4 mg/kg/dose, QDx5, D5, Day 23", "result": 3, "unit": "%"},
      {"measurement": "Day 22 Tumor Weight average", "setting": "[3]; [8]", "result": 31, "unit": "mg"},
      {"measurement": "Day 22 Tumor Weight median", "setting": "[3]; [8]", "result": 7, "unit": "mg"},
      {"measurement": "tumor free animals", "setting": "[3]; 5 mg/kg/dose IP Q4Dx5", "result": "no tumor free animals"},
      {"measurement": "tumor mass compared to the controls", "setting": "[3]; 5 mg/kg/dose IP Q4Dx5", "result": "significant reduction in tumor mass"},
      {"measurement": "Median Tumor Weight (mg, Day 23)", "setting": "[3]; 5 mg/kg/dose, QDx5, D5", "result": 0, "unit": "mg"},
      {"measurement": "T/C (%)", "setting": "[3]; 5 mg/kg/dose, QDx5, D5, Day 23", "result": 0, "unit": "%"},
      {"measurement": "Median Tumor Weight (mg, Day 23)", "setting": "[3]; 7.5 mg/kg/dose, QDx5, D5", "result": 0, "unit": "mg"},
      {"measurement": "T/C (%)", "setting": "[3]; 7.5 mg/kg/dose, QDx5, D5, Day 23", "result": 0, "unit": "%"},
      {"measurement": "Day 22 Tumor Weight average", "setting": "[3]; [9]", "result": 1, "unit": "mg"},
      {"measurement": "Day 22 Tumor Weight median", "setting": "[3]; [9]", "result": 0, "unit": "mg"},
      {"measurement": "reduction in tumor weights", "setting": "[3]; 8 mg/kg/dose and 4 mg/kg/dose IV Q4Dx5", "result": "statistically significant reductions in the tumor weights"},
      {"measurement": "Median Tumor Weight (mg, Day 27)", "setting": "[3]; 25 mg/kg/dose, QDx1, D1O", "result": 0, "unit": "mg"},
      {"measurement": "T/C (%)", "setting": "[3]; 25 mg/kg/dose, QDx1, D1O, Day 27", "result": 0, "unit": "%"},
      {"measurement": "Median Tumor Weight (mg, Day 27)", "setting": "[3]; 25 mg/kg/dose, QDx1, D5", "result": 340, "unit": "mg"},
      {"measurement": "T/C (%)", "setting": "[3]; 25 mg/kg/dose, QDx1, D5, Day 27", "result": 94, "unit": "%"},
      {"measurement": "Median Tumor Weight (mg, Day 27)", "setting": "[3]; 25 mg/kg/dose, QDx1, D15", "result": 1, "unit": "mg"},
      {"measurement": "T/C (%)", "setting": "[3]; 25 mg/kg/dose, QDx1, D15, Day 27", "result": 0, "unit": "%"},
      {"measurement": "tumor burden at day 25 post-implantation", "setting": "[3]; IP Q4Dx5 starting day 4, 25, 16.8 and 11.3 mg/kg (Groups 2-4)", "result": "markedly reduced the tumor burden; also recorded: active against intrarenal RXF-393 tumors at several doses"},
      {"measurement": "decrease in tumor weight", "setting": "[3]; daily dose for five sequential days, doses as low as 3.4 mg/kg/dose", "result": "statistically significant decrease in tumor weight"},
      {"measurement": "efficacy of single dose", "setting": "[3]; single 25 mg/kg dose on day 5 post-tumor implantation", "result": "ineffective"},
      {"measurement": "animals with no detectable tumor", "setting": "[3]; single 25 mg/kg dose on day 10 or 15 post-tumor implantation", "result": "seven often"},
      {"measurement": "activity against Dunning rat leukemia", "setting": "[4]", "result": "possesses activity against Dunning rat leukemia"},
      {"measurement": "median tumor weight (effectiveness in limiting tumor weight)", "setting": "[5]", "result": "at least as effective in limiting tumor weight as NSC-281617"},
      {"measurement": "tolerability", "setting": "[6]; 8, 4 and 2 mg/kg IV Q4Dx5 from day 4", "result": "well tolerated"},
      {"measurement": "average weight loss", "setting": "[6]; [10]", "result": 27, "unit": "%"},
      {"measurement": "mortality", "setting": "[6]; [10]", "result": "no mortality"},
      {"measurement": "mortality", "setting": "[6]; Group 3: 16.8 mg/kg Q4Dx5 IP, 16.8 mg/kg", "result": "no mortality and 16.8 mg NSC-281612/kg Q4Dx5 IP. There was no mortality"},
      {"measurement": "mortality", "setting": "[6]; Group 4: 11.3 mg/kg Q4Dx5 IP, 11.3 mg/kg", "result": "no mortality and 11.3 mg NSC-281612/kg Q4Dx5 IP. There was no mortality"}
    ]}
  ]
}
